Measured values published in patent US20190160049A1, “2-OXO-1,2-DIHYDROPYRIDINE-3-CARBOXAMIDE COMPOUNDS AND THEIR USE AS DUAL INHIBITORS OF PDK1/AURA” (INTERNATIONAL SOCIETY FOR DRUG DEVELOPMENT S.R.L., priority 2016, published 2019).

Legend:
Assay type in all cases: cell-based
U87MG cells = test: U87MG cell proliferation, MTS assay; details: 72 h
Protocol: FIG. 1 illustrates the effects of SA16 on U87MG cell proliferation of example 3 (a). U87MG cells were treated in complete medium with different concentrations of SA16 (1 nM-100 μM) for 72 h. At the end of treatment, cell proliferation was measured using the MTS assay. The data are expressed as a percentage with respect to that of untreated cells (control), which was set to 100%, and are the mean values±SEM of three independent experiments, each performed in duplicate. The significance of the differences was determined with a one-way ANOVA with Bonferroni post-test: * p<0.05, ** p<0.01, *** p<0.001 vs. control cells;
FIG. 2 illustrates the combined inhibition of PDK1 and Aurora A on U87MG cell proliferation of example 3a. U87MG cells were treated in complete medium with different concentrations of MP7, in the presence or absence of Alisertib, for 72 h. At the end of treatment, cell proliferation was measured using the MTS assay. The data are expressed as a percentage with respect to that of untreated cells (control), which was set to 100%, and are the mean values±SEM of three independent experiments, each performed in duplicate. The significance of the differences was determined with a one-way ANOVA with Bonferroni post-test: * p<0.05, *** p<0.001 vs. control cells; ## p<0.01, ### p<0.001 vs. cells treated with MP7 alone; §§ p<0.01, § § § p<0.001 vs. cells treated with Alisertib alone;
To examine the effects of SA16 on U87MG cell growth/survival, U87MG cells were incubated with different concentrations of the compound SA16 (1 nM-10 μM) for 72 h.
In parallel experiments, U87MG proliferation was assessed in the presence of a well-known PDK1 inhibitor MP7, alone or in combination with the Aurora A inhibitor, Alisertib.

CSC neurospheres = test: Sphere-derived cell morphology (neurosphere area, outgrowth of cellular processes); details: seven days, SA16 10 nM, 1 μM, 10 μM
Protocol: FIG. 5 illustrates the effects of SA16 on sphere-derived cell morphology of Example 3c. CSCs were treated for seven days with complete NSC medium containing DMSO (control), or SA16 (10 nM, 1 μM, 10 μM) (A) Representative cell micrographs of control and SA16 (10 μM) after seven days of treatment are shown. The area of the culture plates occupied by the spheres (B) and the length of cellular processes (C) were scored after seven days of treatment. The counts represent the mean values±SEM of two independent experiments. The significance of differences was determined with a one-way ANOVA with Bonferroni post-test: * p<0.05, ** p<0.01, *** p<0.001 vs. control cells.
FIG. 7 illustrates the effects of MP7, Alisertib and of their combined treatment on sphere-derived cell morphology of example 3c. CSCs were treated for seven days with complete NSC medium containing DMSO (control), MP7 and/or alisertib (A) Representative cell micrographs after seven days of treatment are shown. The area of the culture plates occupied by the spheres (B) and the length of cellular processes (C) were scored after seven days of treatment. The counts represent the mean values±SEM of two independent experiments. The significance of differences was determined with a one-way ANOVA with Bonferroni post-test: * p<0.05, *** p<0.001 vs. control cells; ## p<0.01 vs. cells treated with MP7 alone; § p<0.05 vs. cells treated with Alisertib alone.
The effects of SA16 on morphology of neurospheres were evaluated by quantifying the area occupied by the cells in culture plates, as well as the outgrowth of cellular processes.
The inventors then evaluated the effects of MP7, Alisertib and of their combination on CSC differentiation. The cells were incubated with […] MP7, alone or in combination with 1.5 μM Alisertib for seven days.

[1] = system: cancer stem cell (CSC) neurospheres obtained from U87MG cells; test: CSC (GBM stem cell) proliferation, MTS assay; details: seven days
Protocol: FIG. 3 illustrates the effects of SA16 on CSC proliferation of example 3b. CSCs were treated in complete neurosphere medium with different concentrations of SA16 (1 nM-100 μM) for seven days. At the end of treatment, cell proliferation was measured using the MTS assay. The data are expressed as a percentage with respect to that of untreated cells (control), which was set to 100%, and are the mean values±SEM of three independent experiments, each performed in duplicate. IC50 value after seven days of treatment were calculated from sigmoid dose-response curve;
FIG. 4 illustrates combined inhibition of PDK1 and Aurora A on CSCs proliferation of example 3b. CSCs were treated in complete medium with different concentrations of MP7, in the presence or absence of Alisertib, for seven days. At the end of treatment, cell proliferation was measured using the MTS assay.
The data are expressed as a percentage with respect to that of untreated cells (control), which was set to 100%, and are the mean values±SEM of three independent experiments, each performed in duplicate. The significance of the differences was determined with a one-way ANOVA with Bonferroni post-test: * p<0.05, *** p<0.001 vs. control cells; ## p<0.01, ### p<0.001 vs. cells treated with MP7 alone; §§ p<0.01, § § § p<0.001 vs. cells treated with Alisertib alone;
The inventors also examined the effects of SA16 compound on cancer stem cell (CSC) neurospheres obtained from U87MG cells.

In the case of COc1cc(Nc2ncc3c(n2)-c2ccc(Cl)cc2C(c2c(F)cccc2OC)=NC3)ccc1C(=O)O [Alisertib, 4-{[9-Chloro-7-(2-fluoro-6-methoxyphenyl)-5H-pyrimido[5,4-d][2]benzazepin-2-yl]amino}-2-methoxybenzoic acid], the “effect on U87MG cell proliferation (in words)” value (U87MG cells) is reported as “slightly reduced U87MG cell proliferation”, the “outgrowth of cellular processes” value (CSC neurospheres; 1.5 μM Alisertib) is reported as “modest but significant outgrowth of cellular processes” and the “area occupied by the neurospheres” value (CSC neurospheres; 2.5 PIM MP7, 1.5 μM Alisertib) is reported as “reduction in the area occupied by the neurospheres”. For the same molecule, the “effect on CSC proliferation (in words)” value [1] was “anti-proliferative effects on CSCs, in a concentration-dependent manner”.
